The results in this text go back to ChEMBL document CHEMBL5512598, “Current advances and development strategies of orally bioavailable PROTACs” (Eur J Med Chem, 2023).

Data set [1] is described as follows: Clearance in Sprague-Dawley rat at 0.5 mg/kg, iv. The class given is ADME, organism-based. As to conditions: in vivo.
The next data set has as its target Cytochrome P450 2C19 (Homo sapiens, UniProt P33261). The data set is described as follows: Inhibition of CYP2C19 (unknown origin). Format: ADME.
The next data set deals with Cytochrome P450 3A4 (Homo sapiens, UniProt P08684). The data set is described as follows: Inhibition of CYP3A4 (unknown origin). Format: ADME.
For data set [2], the target named is von Hippel-Lindau disease tumor suppressor/Bromodomain-containing protein 9 (Homo sapiens, UniProt Q9H8M2+P40337). The data set is described as follows: PROTAC activity at VHL/BRD9 in human HeLa cells assessed as induction of protein degradation […]. Format: cell-based.
Data set [3] can be described thus: Clearance in mouse at 10 mg/kg, po measured upto 24 hrs by LC-MS/MS analysis. The class given is ADME, organism-based. As to conditions: in vivo.
A short description of data set [4]: Oral bioavailability in Sprague-Dawley rat at 5 mg/kg incubated for 24 hrs by LC-MS/MS analysis. The class given is ADME, organism-based. The conditions noted are these: in vivo.
A short description of data set [5]: Oral bioavailability in ICR mouse at 5 mg/kg by LC-MS/SM analysis. As to conditions: in vivo. The class given is ADME, organism-based.
In a further data set the target is Cytochrome P450 2D6 (Homo sapiens, UniProt P10635). The data set is described as follows: Inhibition of CYP2D6 (unknown origin). The class given is ADME.
Sequence of Cytochrome P450 2D6 (P10635 whole entry): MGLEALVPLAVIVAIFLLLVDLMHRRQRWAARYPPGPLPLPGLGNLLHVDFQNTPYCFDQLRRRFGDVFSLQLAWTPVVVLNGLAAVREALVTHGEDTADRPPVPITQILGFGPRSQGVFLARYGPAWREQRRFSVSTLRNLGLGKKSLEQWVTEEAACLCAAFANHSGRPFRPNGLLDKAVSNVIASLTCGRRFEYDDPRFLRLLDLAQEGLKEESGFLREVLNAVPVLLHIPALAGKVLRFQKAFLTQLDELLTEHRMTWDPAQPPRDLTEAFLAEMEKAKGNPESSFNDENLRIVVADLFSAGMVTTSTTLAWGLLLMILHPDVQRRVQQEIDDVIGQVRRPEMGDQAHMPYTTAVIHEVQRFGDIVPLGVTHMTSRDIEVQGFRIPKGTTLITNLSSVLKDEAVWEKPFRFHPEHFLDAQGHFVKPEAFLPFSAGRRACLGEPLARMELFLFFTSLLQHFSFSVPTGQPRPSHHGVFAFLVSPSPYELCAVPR
Data set [6] deals with Voltage-gated inwardly rectifying potassium channel KCNH2 (Homo sapiens, UniProt Q12809). The data set is described as follows: Inhibition of hERG (unknown origin). The class given is toxicity. On the technique in general: The hERG channel carries a current that helps repolarise heart muscle cells.
Sequence of Voltage-gated inwardly rectifying potassium channel KCNH2 (Q12809 whole entry): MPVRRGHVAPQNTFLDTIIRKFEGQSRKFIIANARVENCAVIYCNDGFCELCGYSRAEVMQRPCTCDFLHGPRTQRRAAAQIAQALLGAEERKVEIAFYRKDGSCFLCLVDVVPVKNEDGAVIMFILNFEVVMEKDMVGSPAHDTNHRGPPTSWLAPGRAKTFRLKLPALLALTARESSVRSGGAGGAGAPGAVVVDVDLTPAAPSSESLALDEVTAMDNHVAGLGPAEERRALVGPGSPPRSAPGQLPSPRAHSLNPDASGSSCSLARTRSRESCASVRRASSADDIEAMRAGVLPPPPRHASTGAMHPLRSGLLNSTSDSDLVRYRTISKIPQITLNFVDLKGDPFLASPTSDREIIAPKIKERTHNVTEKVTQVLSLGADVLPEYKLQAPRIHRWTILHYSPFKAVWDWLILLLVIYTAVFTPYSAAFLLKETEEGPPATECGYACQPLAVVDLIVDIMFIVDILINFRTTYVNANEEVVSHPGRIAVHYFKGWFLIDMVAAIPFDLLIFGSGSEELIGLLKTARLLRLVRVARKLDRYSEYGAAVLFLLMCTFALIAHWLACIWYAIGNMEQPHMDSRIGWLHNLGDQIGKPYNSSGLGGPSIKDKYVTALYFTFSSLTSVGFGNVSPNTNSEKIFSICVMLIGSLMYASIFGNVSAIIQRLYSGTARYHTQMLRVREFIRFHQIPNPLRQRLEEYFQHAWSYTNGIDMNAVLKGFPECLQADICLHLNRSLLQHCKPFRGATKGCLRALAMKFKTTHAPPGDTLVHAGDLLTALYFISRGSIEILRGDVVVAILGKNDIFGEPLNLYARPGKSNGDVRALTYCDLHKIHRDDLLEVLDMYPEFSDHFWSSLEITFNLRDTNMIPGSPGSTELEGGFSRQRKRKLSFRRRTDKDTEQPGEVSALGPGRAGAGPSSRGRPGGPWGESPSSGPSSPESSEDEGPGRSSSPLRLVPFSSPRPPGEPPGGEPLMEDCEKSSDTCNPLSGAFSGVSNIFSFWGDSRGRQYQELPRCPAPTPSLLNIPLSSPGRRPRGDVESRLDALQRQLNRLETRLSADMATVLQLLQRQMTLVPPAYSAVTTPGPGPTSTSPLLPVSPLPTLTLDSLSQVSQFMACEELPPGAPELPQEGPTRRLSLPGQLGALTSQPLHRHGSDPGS
A short description of data set [7]: Oral bioavailability in C57BL/6 mouse at 30 mg/kg by LC-MS/MS analysis. The class given is ADME, organism-based. As to conditions: in vivo.
A short description of data set [8]: AUC (0 to t) in C57BL/6 mouse at 30 mg/kg, po by LC-MS/MS analysis. Format: ADME, organism-based. As to conditions: in vivo.
Data set [9] in a line: Tmax in C57BL/6 mouse at 30 mg/kg, po by LC-MS/MS analysis. The class given is ADME, organism-based. The conditions noted are these: in vivo.
Data set [10] in a line: Half life in C57BL/6 mouse at 30 mg/kg, po by LC-MS/MS analysis. Format: ADME, organism-based. As to conditions: in vivo.
Data set [11] can be described thus: Cmax in C57BL/6 mouse at 30 mg/kg, po by LC-MS/MS analysis. The class given is ADME, organism-based. As to conditions: in vivo.
Data set [12] deals with T1, Protein cereblon/Tyrosine-protein kinase BTK (Homo sapiens, UniProt Q06187+Q96SW2, C481S). The data set is described as follows: PROTAC activity at CRBN/BTK C481S mutant in human DLBCL cells assessed as degradation of BTK protein incubated for 4 hrs by HTRF assay. The class given is cell-based. A general note: Time-resolved FRET reads energy transfer from a long-lived donor to a nearby acceptor.
T1 sequence (Q06187 2-659 C481S limits assumed, stated change not applied): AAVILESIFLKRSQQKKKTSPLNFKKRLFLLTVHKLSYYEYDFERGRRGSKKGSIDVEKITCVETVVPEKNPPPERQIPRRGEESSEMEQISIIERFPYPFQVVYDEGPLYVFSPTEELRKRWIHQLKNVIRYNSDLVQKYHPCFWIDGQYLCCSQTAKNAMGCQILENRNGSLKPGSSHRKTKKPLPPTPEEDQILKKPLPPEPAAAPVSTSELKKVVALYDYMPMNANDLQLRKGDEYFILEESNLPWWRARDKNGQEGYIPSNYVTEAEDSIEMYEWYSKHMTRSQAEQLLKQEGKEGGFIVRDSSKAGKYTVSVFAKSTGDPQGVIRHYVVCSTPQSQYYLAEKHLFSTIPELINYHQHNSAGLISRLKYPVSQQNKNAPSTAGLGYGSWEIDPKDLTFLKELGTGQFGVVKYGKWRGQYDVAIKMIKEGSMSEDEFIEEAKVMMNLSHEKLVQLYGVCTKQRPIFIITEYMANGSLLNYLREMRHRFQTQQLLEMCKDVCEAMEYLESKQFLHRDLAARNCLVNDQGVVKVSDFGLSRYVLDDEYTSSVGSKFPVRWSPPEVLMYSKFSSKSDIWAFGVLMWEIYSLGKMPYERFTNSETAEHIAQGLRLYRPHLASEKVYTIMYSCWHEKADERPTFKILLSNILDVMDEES
T1 sequence (Q96SW2 whole entry, stated change not applied): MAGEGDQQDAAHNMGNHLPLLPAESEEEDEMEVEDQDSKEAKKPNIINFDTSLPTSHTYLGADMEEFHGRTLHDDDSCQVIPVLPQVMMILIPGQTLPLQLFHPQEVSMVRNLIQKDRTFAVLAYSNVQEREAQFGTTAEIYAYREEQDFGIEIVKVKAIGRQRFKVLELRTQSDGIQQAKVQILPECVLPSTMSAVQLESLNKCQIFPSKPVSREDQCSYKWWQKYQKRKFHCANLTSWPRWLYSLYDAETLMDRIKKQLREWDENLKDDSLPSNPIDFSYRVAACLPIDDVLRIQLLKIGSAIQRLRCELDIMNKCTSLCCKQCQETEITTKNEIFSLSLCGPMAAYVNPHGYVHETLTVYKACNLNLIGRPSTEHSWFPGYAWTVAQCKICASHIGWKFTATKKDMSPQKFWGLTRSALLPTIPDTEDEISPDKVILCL

The nature of data set [13]: Half life in mouse at 30 mg/kg, po measured upto 24 hrs by LC-MS/MS analysis. The conditions noted are these: in vivo. The class given is ADME, organism-based.
A short description of data set [14]: AUC in mouse at 30 mg/kg, po. Format: ADME, organism-based. As to conditions: in vivo.
The target in data set [15] is T1, Protein cereblon/Tyrosine-protein kinase BTK. The data set is described as follows: PROTAC activity at CRBN/BTK in human TMD8 cells assessed as protein degradation. Format: cell-based.
For data set [16], the system named is Protein cereblon/Tyrosine-protein kinase BTK (Homo sapiens), Q06187+Q96SW2 [C481S]. The data set is described as follows: PROTAC activity at CRBN/BTK in human TMD8 cells assessed as maximal protein degradation relative to control. The class given is cell-based.
The target of data set [17] is von Hippel-Lindau disease tumor suppressor/Histone-lysine N-methyltransferase EZH2 (Homo sapiens, UniProt Q15910+P40337, Y641N). The data set is described as follows: PROTAC activity against VHL/EZH2 Y641N mutant in human DB cells assessed as degradation of EZH2 protein expression incubated for 24 hrs by Western blot analysis. Format: cell-based. Background: In western blotting, separated proteins are transferred to a membrane and probed.
Sequence of von Hippel-Lindau disease tumor suppressor/Histone-lysine N-methyltransferase EZH2 (P40337 whole entry, stated change not applied): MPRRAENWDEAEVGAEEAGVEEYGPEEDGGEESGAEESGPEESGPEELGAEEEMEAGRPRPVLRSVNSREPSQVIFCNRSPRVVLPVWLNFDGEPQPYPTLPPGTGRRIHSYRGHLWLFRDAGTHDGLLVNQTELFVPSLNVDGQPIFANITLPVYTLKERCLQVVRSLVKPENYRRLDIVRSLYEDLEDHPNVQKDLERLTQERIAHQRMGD
Sequence of von Hippel-Lindau disease tumor suppressor/Histone-lysine N-methyltransferase EZH2 (Q15910 whole entry Y641N, stated change not applied): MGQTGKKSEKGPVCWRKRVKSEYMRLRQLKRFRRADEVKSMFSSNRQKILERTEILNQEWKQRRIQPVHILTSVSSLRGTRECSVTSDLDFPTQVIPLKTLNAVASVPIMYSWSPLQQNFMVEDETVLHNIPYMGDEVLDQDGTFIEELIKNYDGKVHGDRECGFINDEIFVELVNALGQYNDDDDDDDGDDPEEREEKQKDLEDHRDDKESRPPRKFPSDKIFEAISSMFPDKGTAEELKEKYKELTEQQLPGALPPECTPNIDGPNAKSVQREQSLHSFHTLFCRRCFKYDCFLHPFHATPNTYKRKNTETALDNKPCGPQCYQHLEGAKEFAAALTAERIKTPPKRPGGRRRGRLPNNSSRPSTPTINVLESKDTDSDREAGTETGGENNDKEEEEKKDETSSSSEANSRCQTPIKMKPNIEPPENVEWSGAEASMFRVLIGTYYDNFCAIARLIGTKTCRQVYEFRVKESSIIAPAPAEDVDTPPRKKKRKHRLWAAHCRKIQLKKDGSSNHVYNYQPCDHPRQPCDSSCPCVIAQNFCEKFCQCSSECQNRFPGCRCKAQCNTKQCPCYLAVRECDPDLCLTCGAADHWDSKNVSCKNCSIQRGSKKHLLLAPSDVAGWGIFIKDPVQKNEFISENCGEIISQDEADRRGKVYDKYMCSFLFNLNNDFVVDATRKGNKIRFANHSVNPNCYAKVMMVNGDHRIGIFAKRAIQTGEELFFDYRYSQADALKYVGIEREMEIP

In data set [18] the test system is von Hippel-Lindau disease tumor suppressor/Tyrosine-protein kinase BTK (Homo sapiens), Q06187+P40337 [C481S]. The data set is described as follows: PROTAC activity at VHL/BTK C481S mutant in human TMD8 cells assessed as maximum degradation of protein relative to control. The class given is cell-based.
Data set [19] addresses von Hippel-Lindau disease tumor suppressor/Tyrosine-protein kinase BTK (Homo sapiens, UniProt Q06187+P40337, C481S). The data set is described as follows: PROTAC activity at VHL/BTK C481S mutant in human TMD8 cells assessed as induction of BTK degradation incubated for 24 hrs by immunoblotting analysis. The class given is cell-based.
For data set [20], the target named is T1, Protein cereblon/Tyrosine-protein kinase BTK. The data set is described as follows: PROTAC activity at CRBN/BTK C481S mutant in human TMD8 cells assessed as degradation of BTK protein incubated for 4 hrs by HTRF assay. The class given is cell-based.
Data set [21] in a line: Oral bioavailability in mouse. The class given is ADME, organism-based. As to conditions: in vivo.
In data set [22] the target is T2, Protein cereblon/Tyrosine-protein kinase BTK (Homo sapiens, UniProt Q06187+Q96SW2). The data set is described as follows: PROTAC activity at CRBN/BTK in human TMD8 cells assessed as maximal degradation of BTK protein incubated for 24 hrs by immunoblotting analysis relative to control. The class given is cell-based.
Target sequence in this assay (Q06187 2-659 limits assumed): as the sequence (Q06187 2-659 C481S limits assumed, stated change not applied) above, with S480C counted along it
Target sequence in this assay (Q96SW2 whole entry partner): as the sequence (Q96SW2 whole entry, stated change not applied) above
Data set [23] addresses T2, Protein cereblon/Tyrosine-protein kinase BTK. The data set is described as follows: PROTAC activity at CRBN/BTK in human TMD8 cells assessed as induction of BTK degradation incubated for 24 hrs by immunoblotting analysis. Format: cell-based.
Target sequence in this assay (Q06187 whole entry): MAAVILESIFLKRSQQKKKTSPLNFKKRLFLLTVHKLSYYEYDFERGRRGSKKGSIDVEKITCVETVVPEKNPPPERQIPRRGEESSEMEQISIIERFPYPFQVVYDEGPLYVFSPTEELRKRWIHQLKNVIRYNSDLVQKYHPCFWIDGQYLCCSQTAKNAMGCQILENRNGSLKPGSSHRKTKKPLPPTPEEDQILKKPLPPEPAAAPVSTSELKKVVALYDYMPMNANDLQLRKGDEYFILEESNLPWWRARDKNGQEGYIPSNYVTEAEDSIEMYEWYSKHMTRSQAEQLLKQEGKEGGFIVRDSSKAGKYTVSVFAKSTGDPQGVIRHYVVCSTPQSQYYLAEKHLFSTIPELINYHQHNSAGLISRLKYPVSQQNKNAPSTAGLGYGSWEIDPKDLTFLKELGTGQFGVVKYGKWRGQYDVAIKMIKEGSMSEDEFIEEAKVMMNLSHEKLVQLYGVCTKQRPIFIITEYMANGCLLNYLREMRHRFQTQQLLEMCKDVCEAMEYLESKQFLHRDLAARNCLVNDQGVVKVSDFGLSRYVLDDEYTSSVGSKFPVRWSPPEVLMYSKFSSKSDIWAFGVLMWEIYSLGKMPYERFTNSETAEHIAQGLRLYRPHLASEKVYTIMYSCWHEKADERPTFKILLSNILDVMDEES
Target sequence in this assay (Q96SW2 whole entry): as the sequence (Q96SW2 whole entry, stated change not applied) above
Data set [24] is described as follows: Cmax in mouse at 10 mg/kg, po measured upto 24 hrs by LC-MS/MS analysis. The class given is ADME, organism-based. The conditions noted are these: in vivo.
The nature of data set [25]: Oral bioavailability in rat at 5 mg/kg by LC-MS/MS analysis. The class given is ADME, organism-based. The conditions noted are these: in vivo.
Data set [26] in a line: Oral bioavailability in mouse at 5 mg/kg by LC-MS/MS analysis. The class given is ADME, organism-based. The conditions noted are these: in vivo.

Sequence of von Hippel-Lindau disease tumor suppressor/Tyrosine-protein kinase BTK (P40337 whole entry, stated change not applied): as the sequence (P40337 whole entry, stated change not applied) above
Sequence of von Hippel-Lindau disease tumor suppressor/Tyrosine-protein kinase BTK (Q06187 2-659 C481S limits assumed, stated change not applied): as the sequence (Q06187 2-659 C481S limits assumed, stated change not applied) above

For orientation: clearance means a measure of how efficiently the substance is removed, as volume per time. Read a low clearance as a low capacity for elimination. One may read the IC50 as the concentration needed to halve the response being measured. A lower IC50 goes with greater potency in that assay. By DC50 is commonly meant the concentration at which degradation of the target reaches its halfway point. One may read the CL/F as the apparent clearance, not corrected for the fraction that reaches the circulation. Usually bioavailability stands for the share of a dose that reaches the circulation, judged against a reference dose that is usually intravenous. A high value points to much systemic uptake. Turning to `COc1cc(-c2cn(C)c(=O)c3cnccc23)cc(Cl)c1CN1CCC(C2CCN(C(=O)c3ccc(NC4CCC(=O)NC4=O)cc3C(F)(F)F)CC2)CC1` (centres undefined), in data set [1], the clearance was 74 mL/min/kg. Also, the 50% inhibitory concentration (IC50) against Cytochrome P450 2C19 was 1900 nM; against Cytochrome P450 3A4, 5600 nM; on Cytochrome P450 2D6, more than 30000 nM; in data set [6], 7500 nM. For the same compound, the 50% degradation concentration (DC50) in data set [2] was 11 nM. This compound displayed an apparent clearance (CL/F) in [3] of 30 mL/min/kg. Further, the bioavailability in data set [4] was determined as 48%; in [5] it was 100%.

Usually AUC(0-t) stands for the area under the concentration-time curve up to a stated or last time point. Usually Tmax stands for the time at which the peak concentration occurs. For orientation: half-life means the time needed for the level to fall by half in the phase considered. Low readings indicate rapid decline, high ones slow decline. Usually Cmax stands for the peak of the concentration-time curve. Turning to `CNc1nc(Nc2ccc(C(=O)N3CCN(C[C@H]4CC[C@H](CSC(C)(C)[C@H](NC(=O)C5(F)CC5)C(=O)N5C[C@H](O)C[C@H]5C(=O)NCc5ccc(-c6scnc6C)cc5)CC4)CC3)cc2OC)ncc1Cl`, the bioavailability in data set [7] was 15%. For the same compound, in data set [8], the area under the curve AUC(0-t) amounted to 21300 ng·h/mL. Besides, in data set [9], the time to peak (Tmax) turned out to be 2 h. In [10], this compound showed a half-life of 21.9 h. In data set [11], this compound showed a Cmax of 3620 ng/mL.

In the case of `CN1CCN([C@@H]2CCCN(c3cnc(C(N)=O)c(Nc4ccc(C5CCN(CC6CCN(c7ccc(C(=O)N[C@H]8CCC(=O)NC8=O)nc7)CC6)CC5)cc4)n3)C2)C1=O` [NX-5948], the DC50 in data set [12] worked out at 0.32 nM.

In general, AUC refers to concentration integrated over time. High values mean high exposure, low ones low exposure. Turning to `O=C1CC[C@H](N2Cc3cc(N4CCN(CC5CCN(c6ccc([C@@H]7c8ccc(O)cc8CC[C@@H]7c7ccccc7)cc6)CC5)CC4)ccc3C2=O)C(=O)N1` [VEPDEGESTRANT], in data set [13], the half-life was 28 h. The compound also showed an AUC in data set [14] of 5720 ng·h/mL.

The Emax is the size of the effect at its maximum, as opposed to the concentration needed. For the compound `CN1CCN([C@@H]2CCCN(c3cnc(C(N)=O)c(Nc4ccc(C5CCN(C[C@@H]6CCN(c7ccc8c(c7)C(=O)N(C7CCC(=O)NC7=O)C8=O)C6)CC5)cc4)n3)C2)C1=O` (some centres undefined), the half-maximal degradation concentration (DC50) in data set [15] was 0.5 nM. For the same compound, in data set [16], the Emax was 96%.

Turning to `Cc1ncsc1-c1ccc(CNC(=O)[C@@H]2C[C@@H](O)CN2C(=O)[C@@H](NC(=O)CCCNC(=O)c2ccc(-c3cnc(NCc4ccco4)n4cnnc34)cc2)C(C)(C)C)cc1`, in data set [17], the half-maximal degradation concentration (DC50) turned out to be 670 nM.

For the compound `CN1CCN([C@@H]2CCCN(c3cnc(C(N)=O)c(Nc4ccc(C5CCN(C(=O)CCOCCNc6cccc7c6C(=O)N(C6CCC(=O)NC6=O)C7=O)CC5)cc4)n3)C2)C1=O` (some centres undefined), in [18], the Emax was found to be 86%. In [19], the 50% degradation concentration (DC50) was determined as 7 nM.

On to `NC(=O)c1ncc(N2CCCCC2)nc1Nc1ccc(C2CCN(C[C@@H]3CCN(c4ccc5c(c4)C(=O)N(C4CCC(=O)NC4=O)C5=O)C3)CC2)cc1` (some centres undefined), for which the DC50 was 13 nM in data set [20] and 4.5 nM in data set [23]. Besides, the bioavailability in data set [21] came out at 8%. Moreover, the maximal response (Emax) in data set [22] was 86%. Moreover, the highest level in [24] (Cmax) was 1300 nM.

With `N#Cc1ccc(O[C@H]2CC[C@H](NC(=O)c3ccc(N4CCC(CN5CCN(c6cc7c(cc6F)C(=O)N(C6CCC(=O)NC6=O)C7=O)CC5)CC4)nn3)CC2)cc1Cl` (some centres undefined) [BAVDEGALUTAMIDE], the bioavailability was 23.8% in data set [25] and 37.9% in [26].
